Test results reported in patent publication US10617734B2, “STAT3 and ERK signal pathway inhibitor comprising mogrosides and analogs thereof” (BEIJING UNIVERSITY OF AGRICULTURE, priority 2014, dated 2020).

Columns and labels:
[1] = system: human melanoma A875 cells; test: MTT colorimetric experiment, cell growth inhibition; type: cell-based; details: melanoma A875 cells, 0.1, 1, 10, 100, 200 and 250 μmol/L, MTT after 24 h
Method: (§1) MTT colorimetric experiments were performed after 24 h, respectively: prior to the finish of each experiment, 15 μl of MTT solution in a concentration of 5 mg/ml was added to each well, and the culture was continued in dark at 37° C. for 4 h, then 150 μl of DMSO was added to each well and oscillating in a shaker for 10 min, and then the residue was placed in a microplate reader to detect the optical density OD) at 490 nm, and the inhibition rate was calculated according to the following formula: cell growth inhibition rate (control group OD490—test group OD490)/control group OD490×100%.

lymphoma U937 cells [2] = test: as above; type: cell-based; details: U937 cells, 0.1, 1, 10, 100, 200 and 250 μmol/L, MTT after 24 h
Method: as §1

[3] = system: anti-apoptotic protein Bcl-2; test: Western Blotting of Bcl-2 in U937 cells; type: cell-based; details: 10 μmol/L, 24 h
Method: (§2) The STAT3 and ERK signal pathways can regulate cyclins and apoptosis genes, and in order to verify the effects of […] and mogrol, the expression status of downstream genes of STAT3 and ERK was detected, wherein the influences of the three mogrosides and analogs thereof, i.e. Mogrol I E1, Mogrol II A2 and mogrol, on Bcl-2 and P21 proteins in the histiocytic lymphoma U937 cells, human melanoma A875 cells and leukemia cells K562 were determined, respectively.
(§3) The regulation of Bcl-2 and P21 proteins by mogrosides and analog thereof to the was detected by Western Blotting, specifically: histiocytic lymphoma U937 cells, human melanoma A875 cells and leukemia cells K562 (1×10^6 cells/well) were inoculated into a 6-well culture plate overnight, and 0 and 10 μmol/L of the mogrosides and analogs thereof were added respectively, and kept cultured for 24 h. […]
(§4) The protein concentration was measured with bovine serum albumin (BSA) as the standard. 50 μg of the total proteins were separated by polyacrylamide gel electrophoresis with 12% SDS, and electrophoretically transferred to a PVDF membrane (polyvinylidene fluoride membrane), and blocked for 1 h by 5% of skim milk (containing 0.1% of Tween 20), and then antibodies P21, Bcl-2 and β-actin were added, wherein the primary antibody was incubated at 4° C. overnight (β-actin was used as reference loading amount); the membrane was washed for 3 times with TBS-T, 5 min each time; secondary antibody marked by horseradish peroxidase (HRP) was added for incubation at room temperature for 1 h, the membrane was washed with rinse solution (TBS-T) for 3 times, 10 min each time, and then ECL was added for incubation in dark for 5 min, and subsequently, a fluorescence imaging analyzer was used for image development and scanning analysis.

[4] = system: human melanoma A875 cells; test: Cell morphology, Hoechst 33258 staining, fluorescence microscope; type: cell-based; details: A875 melanoma cells, 10, 100 and 250 μmol/L, 24-hour culture
Method: (§5) Lymphoma U937 cells, human melanoma A875 cells and leukemia cells K562 in logarithmic growth phase were selected, and the concentrations of the cells were adjusted to 1×10^4 cells/mL, and the cells were transferred to a 6-well plate for culture, and after the 24-hour culture, drugs were added to achieve final concentrations of 0, 10, 100 and 250 μmol/L, wherein only whole medium was added to the negative control groups, while Mogroside II A2 was added to the positive control groups, after 24-hour culture, waste solution was removed, and fixing solution was added to each well for fixing for 25 min, and then the resulting mixture was washed twice, 3 min each time, and then Hoechst 33258 staining solution was added for staining in dark at room temperature for 30 min, and the cell morphology variation was observed using a fluorescence microscope.

lymphoma U937 cells [5] = test: as above; type: cell-based; details: lymphoma U937 cells, 10, 100 and 250 μmol/L, 24-hour culture
Method: as §5

[6] = system: cycle regulatory protein P21; test: Western Blotting of P21 in A875 cells; type: cell-based; details: human melanoma A875 cells, 10 μmol/L, 24 h
Method: as §2, §3, §4

[7] = system: phosphorylated ERK1/2 (P-ERK1/2); test: Western Blotting of phosphorylated ERK1/2 in K562 cells; type: cell-based, human; details: leukemia cells K562, 10 μmol/L, 24 hours
Method: (§6) The inhibition of the STAT3 and ERK signal pathways achieved by Mogroside I E1, Mogroside II A2 and mogrol was detected by Western Blotting, specifically:
(§7) Group 3: leukemia cells K562 (1×10^6 cells/well) were inoculated into a 6-well culture plate for staying overnight, and 0 and 10 μmol/L of Mogroside I E1 Mogroside II A2 and mogrol were added respectively, and the culture was continued for 24 hours;
(§8) After the termination of the cell culture, the culture solution was removed, and the residue was washed with PBS (0.01 mol/L, pH 7.4), and then a cell lysis solution containing protease inhibitors was added at an amount of 50 μl/well, and the mixture was placed in an ice bath for lysis at 4° C. for 30 min and then centrifuged at 14000 r/min for 10 min, and then total proteins were obtained from the supernatant;
(§9) The protein concentrations were measured with bovine serum albumin (BSA) as the standard. 50 μg of the total proteins was separated by polyacrylamide gel electrophoresis with 12% […], electrophoretically transferred to a PVDF membrane (polyvinylidene fluoride membrane), and blocked for 1 h by 5% of skim milk (containing 0.1% of Tween 20), and then antibodies p-STAT3 (Tyr705) and p-Erk1/2 as well as β-actin were added, and the primary antibody was incubated at 4° C. overnight (β-actin was used as reference in loading amount); the membrane was washed for 3 times with TBS-T, 5 min each time; secondary antibody marked by horseradish peroxidase (HRP) was added for incubation at room temperature for 1 h, the membrane was washed for 3 times with a wash solution (TBS-T), 10 min each time, and then ECL was added for incubation in dark for 5 min, and subsequently, a fluorescence imaging analyzer was used for image development and scanning analysis, and the results of Western Blotting detection are shown in FIGS. 4 to 6.

leukemia cells K562 = test: Cell morphology, Hoechst 33258 staining, fluorescence microscope; type: cell-based, human; details: leukemia cells K562, 10, 100 and 250 μmol/L, 24-hour culture
Method: as §5

[8] = system: phosphorylated STAT3 (P-STAT3, Tyr705); test: Western Blotting of phosphorylated STAT3 in K562 cells; type: cell-based, human; details: leukemia cells K562, 10 μmol/L, 24 hours
Method: as §6, §7, §8, §9

[9] = system: anti-apoptotic protein Bcl-2; test: Western Blotting of Bcl-2 in A875 cells; type: cell-based; details: human melanoma A875 cells, 10 μmol/L, 24 h
Method: as §2, §3, §4

[10] = system: phosphorylated STAT3 (P-STAT3, Tyr705); test: Western Blotting of phosphorylated STAT3 in A875 cells; type: cell-based, human; details: melanoma A875 cells, 10 μmol/L, 24 hours
Method: as §6
Group 2: human melanoma A875 cells (1×10^6 cells/well) were inoculated into a 6-well culture plate for staying overnight, and 0 and 10 μmol/L of Mogroside I E1, Mogroside II A2 and mogrol were added respectively, and the culture was continued for 24 hours;
as §8, §9

C[C@H](CC[C@@H](O)C(C)(C)O)[C@H]1CC[C@@]2(C)[C@@H]3CC=C4[C@@H](CC[C@H](O)C4(C)C)[C@]3(C)[C@H](O)C[C@]12C [mogrol]
cell growth inhibition rate [1]: inhibitory effect on the proliferation
cell growth inhibition rate (lymphoma U937 cells [2]): inhibitory effect on the proliferation
expression of anti-apoptotic protein Bcl-2 [3]: significantly down-regulated
cell morphology variation (Hoechst 33258) [4]: identical to the results of Mogroside II A2
cell morphology variation (Hoechst 33258) (lymphoma U937 cells [5]): identical to the results of Mogroside II A2
expression of cycle regulatory protein P21 [6]: significantly up-regulated
expression level of phosphorylated ERK1/2 (P-ERK1/2) [7]: significantly decreased
cell morphology variation (Hoechst 33258) (leukemia cells K562): identical to the results of Mogroside II A2
expression level of phosphorylated STAT3 (P-STAT3) [8]: significantly decreased
expression of anti-apoptotic protein Bcl-2 [9]: significantly down-regulated
expression level of phosphorylated STAT3 (P-STAT3) [10]: significantly decreased
